Test results from publication PMC3639963, “A New Class of Small Molecule Inhibitor of BMP Signaling” (PLoS ONE, 2013).
Where “and” joins values, the source holds several entries; their conditions need not be identical. Equal entries are not always repeated.

How the values were obtained:
ALK2 = tested on: ALK2; design: method as in PMID 19914855; conditions: read-out: reported in vitro IC50 (enzymatic assays); cited from earlier work
C2C12 cells = conditions: cited from earlier work
ALK1 = biological target: T1, ALK1 (Homo sapiens, UniProt P37023); assay: In vitro kinase assay ([γ-32P]ATP); assay type: biochemical; conditions: at the Km value of ATP; triplicate
T1 construct: purchased Nanosyn (enzymatic panel); SGC in-house recombinant human kinases (DSF panel); Invitrogen (ALK1-6)
Protocol: (§1) Inhibitors were added at concentrations between 0 and 10 µM in kinase reaction buffer and tested in triplicate.

ALK3 = biological target: T2, ALK3 (Homo sapiens, UniProt P36894); assay: In vitro kinase assay ([γ-32P]ATP); assay type: biochemical; conditions: at the Km value of ATP; triplicate
T2 construct: purchased Nanosyn (enzymatic panel); SGC in-house recombinant human kinases (DSF panel); Invitrogen (ALK1-6)
Protocol: as §1

ALK4 = biological target: T3, ALK4 (Homo sapiens, UniProt P36896); assay: In vitro kinase assay ([γ-32P]ATP); assay type: biochemical; conditions: at the Km value of ATP; triplicate
T3 construct: purchased Invitrogen
T3 sequence (P36896 24-505): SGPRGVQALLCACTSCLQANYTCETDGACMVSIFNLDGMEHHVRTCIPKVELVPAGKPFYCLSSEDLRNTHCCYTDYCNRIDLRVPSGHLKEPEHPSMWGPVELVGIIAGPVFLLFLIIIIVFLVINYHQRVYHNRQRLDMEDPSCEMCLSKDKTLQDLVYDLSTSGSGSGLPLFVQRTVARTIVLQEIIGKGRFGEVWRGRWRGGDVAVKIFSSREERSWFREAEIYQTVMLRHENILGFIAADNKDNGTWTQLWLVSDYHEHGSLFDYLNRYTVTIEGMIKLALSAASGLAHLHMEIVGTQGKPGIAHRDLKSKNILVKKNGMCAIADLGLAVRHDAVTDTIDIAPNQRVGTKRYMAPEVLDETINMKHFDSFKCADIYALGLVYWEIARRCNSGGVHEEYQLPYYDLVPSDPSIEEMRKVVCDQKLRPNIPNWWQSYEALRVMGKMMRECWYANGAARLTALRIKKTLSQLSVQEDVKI
Protocol: as §1

ALK6 = biological target: T4, ALK6 (Homo sapiens, UniProt O00238); assay: In vitro kinase assay ([γ-32P]ATP); assay type: biochemical; conditions: at the Km value of ATP; triplicate
T4 construct: purchased Nanosyn (enzymatic panel); SGC in-house recombinant human kinases (DSF panel); Invitrogen (ALK1-6)
Protocol: as §1

[1] = tested on: Tg(BRE:mRFP) transgenic zebrafish embryos; assay: Dorsalization of zebrafish embryos; assay type: in vivo; conditions: treated from the 8- to 16-cell stage, scored at 26 hours
Protocol: The zebrafish colony was maintained as described and embryos were raised at 28.5°C. The Tg(BRE:mRFP) transgenic line (also called BRE-mRFP) has been described previously and expresses mRFP in response to BMP signaling. […] Inhibitor stocks were diluted in DMSO and then further diluted in fish water to give the required inhibitor concentrations. To minimize the amount of inhibitors used, experiments were performed in 24-well plates with approximately 20 embryos per well in a volume of 1 mL. The chemical treatment was applied by immersing 8- to 16-cell stage Tg(BRE:mRFP) embryos (dorsalization experiment) or 12 hours old […]) embryos (ISV experiment) in the fish water supplemented with DMSO or the chemical inhibitors. For the ISV experiment, embryos were manually dechorionated after bud stage before treatment. Embryos were scored and photographed at 26 or 48 hours.

[2] = tested on: mRFP under control of a BMP response element; assay: Western blot for mRFP in Tg(BRE:mRFP) embryos; assay type: in vivo, zebrafish; conditions: 26 hours old embryos
Protocol: Inhibitor stocks were diluted in DMSO and then further diluted in fish water to give the required inhibitor concentrations. To minimize the amount of inhibitors used, experiments were performed in 24-well plates with approximately 20 embryos per well in a volume of 1 mL. The chemical treatment was applied by immersing 8- to 16-cell stage Tg(BRE:mRFP) embryos (dorsalization experiment) or 12 hours old Tg(fli1a:eGFP) embryos (ISV experiment) in the fish water supplemented with DMSO or the chemical inhibitors. For the ISV experiment, embryos were manually dechorionated after bud stage before treatment. Embryos were scored and photographed at 26 or 48 hours.
Ten non-dechorionated 26 hours old treated Tg(BRE:mRFP) embryos were snap frozen on dry ice and stored at −80°C. Protein extracts were prepared as described previously for Xenopus embryos. Extraction buffer was freshly prepared. 10 µL per embryo of the protein extract buffer was used to lyse the embryos using a plastic pestle and a pellet pestle motor (Kontes). 40 µg (∼ 1 embryo equivalent) of protein extract was loaded per lane on a 12.5% SDS-PAGE gel. The rabbit anti-mRFP (Invitrogen, R10367) and the goat anti-MCM6 (Santa Cruz, sc-9843) antibodies were used for Western blots.

T1 sequence (P37023 22-503): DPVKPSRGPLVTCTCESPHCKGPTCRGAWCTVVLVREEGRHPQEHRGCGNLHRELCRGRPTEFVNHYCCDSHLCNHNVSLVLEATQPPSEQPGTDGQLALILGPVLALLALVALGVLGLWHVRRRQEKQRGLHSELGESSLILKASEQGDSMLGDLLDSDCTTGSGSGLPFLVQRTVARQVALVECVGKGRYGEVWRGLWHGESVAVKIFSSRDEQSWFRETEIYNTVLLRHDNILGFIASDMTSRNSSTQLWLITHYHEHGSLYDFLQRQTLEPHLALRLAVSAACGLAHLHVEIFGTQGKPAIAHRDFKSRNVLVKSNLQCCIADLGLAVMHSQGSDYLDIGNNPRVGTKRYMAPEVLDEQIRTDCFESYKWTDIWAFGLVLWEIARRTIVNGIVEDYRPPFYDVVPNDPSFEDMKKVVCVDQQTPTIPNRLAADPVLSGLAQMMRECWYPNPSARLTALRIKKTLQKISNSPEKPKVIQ
T4 sequence (O00238 14-502): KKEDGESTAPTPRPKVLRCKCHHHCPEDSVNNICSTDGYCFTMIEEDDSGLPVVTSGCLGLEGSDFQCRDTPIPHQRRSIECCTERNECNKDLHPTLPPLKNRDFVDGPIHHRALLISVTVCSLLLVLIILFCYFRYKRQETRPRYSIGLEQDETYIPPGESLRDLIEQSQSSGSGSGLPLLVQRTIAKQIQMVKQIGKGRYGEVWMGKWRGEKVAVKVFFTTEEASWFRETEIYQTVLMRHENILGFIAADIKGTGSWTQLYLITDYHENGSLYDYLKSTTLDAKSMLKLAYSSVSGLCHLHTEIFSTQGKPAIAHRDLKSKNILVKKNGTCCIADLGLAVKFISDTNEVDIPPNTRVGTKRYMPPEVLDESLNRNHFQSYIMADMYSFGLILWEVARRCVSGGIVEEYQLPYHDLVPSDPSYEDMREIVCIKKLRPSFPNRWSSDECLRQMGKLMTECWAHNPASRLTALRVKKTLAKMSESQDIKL
T2 sequence (P36894 24-532): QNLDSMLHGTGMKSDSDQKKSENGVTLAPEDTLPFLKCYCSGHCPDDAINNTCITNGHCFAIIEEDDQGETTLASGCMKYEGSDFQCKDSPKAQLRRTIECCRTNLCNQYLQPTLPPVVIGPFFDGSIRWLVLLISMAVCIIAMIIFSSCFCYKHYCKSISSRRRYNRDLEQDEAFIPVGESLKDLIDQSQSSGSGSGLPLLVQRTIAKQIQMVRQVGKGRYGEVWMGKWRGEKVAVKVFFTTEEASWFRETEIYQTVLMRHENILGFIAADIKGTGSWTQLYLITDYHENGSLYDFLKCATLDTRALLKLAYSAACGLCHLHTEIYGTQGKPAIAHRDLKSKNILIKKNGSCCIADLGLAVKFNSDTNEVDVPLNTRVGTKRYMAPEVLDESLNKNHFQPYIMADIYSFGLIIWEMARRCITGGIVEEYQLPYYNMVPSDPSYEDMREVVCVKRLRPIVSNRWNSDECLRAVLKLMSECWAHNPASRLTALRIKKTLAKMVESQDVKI

IC50 (ALK1) | IC50 (ALK3) | IC50 (ALK4) | IC50 (ALK6) | Compound | IC50 (ALK2) | IC50 (C2C12 cells) | concentration giving severely dorsalized phenotype [1] | concentration at which loss of mRFP protein was evident [2]
 |  |  |  | c1cc(-c2cnn3cc(-c4ccc(OCCN5CCCCC5)cc4)cnc23)ccn1 [Dorsomorphin] | 50 nM | ~500 nM |  | 
1.8 nM and 1 to 2 nM | 34.4 nM | 302 nM | 6.4 nM | COc1cc(-c2cc(-c3cccc(O)c3)cnc2N)cc(OC)c1OC [K02288, 3-[6-amino-5-(3,4,5-trimethoxy-phenyl)-pyridin-3-yl]-phenol] |  |  | 8 to 10 µM | 8 to 10 µM
